Test results published in patent US20150289512A1, “METHOD FOR PROMOTING PLANT GROWTH” (SUMITOMO CHEMICAL COMPANY, LIMITED, priority 2012, published 2015).

How the values were obtained:
Assay type in all cases: in vivo
[1] = system: Rice (variety: Nipponbare); test: Test Example 2: promotion of root growth by hydroponics of rice, 1 ppm; conditions: hydroponic solution containing the test compound at 1 ppm, average of 4 or 5 individuals; for change in vivo at 1 ppm: Oryza sativa, read-out: Relative value of length of seminal root (%-untreated control plot)
Procedure: (§1) Test for Evaluating Promotion of Root Growth by Hydroponics of Rice
(§2) Rice (variety: Nipponbare)
A DMSO solution, which contained one of the compounds 1, 3, 11, 12, 14, 15, 17, 21, 28, 30, 33, 34, 35, 36, 37, 38, 40, 41, 43, 44, 45, 46, 47, 49, 50, 51, 52, 53, 54, 55, 56, 61, 62, 63, 65, 67, 68, 69, 70, 73, 74, 75, 76, 77, 80, 82, 83, 85 and 86 of the present invention at a concentration of 10,000 ppm, was added to Hoagland hydroponic solution (Hoagland and Arnon, California Agricultural Experiment Station 1950 Circular 347 pp. 34) of ¼-fold concentration at a volume ratio of 1/10,000. In this manner, hydroponic solutions containing one of the compounds 1, 3, 11, 12, 14, 15, 17, 21, 28, 30, 33, 34, 35, 36, 37, 38, 40, 41, 43, 44, 45, 46, 47, 49, 50, 51, 52, 53, 54, 55, 56, 61, 62, 63, 65, 67, 68, 69, 70, 73, 74, 75, 76, 77, 80, 82, 83, 85 and 86 of the present invention at 1 ppm were prepared respectively. As an untreated control plot, a hydroponic solution obtained by adding DMSO to Hoagland hydroponic solution of ¼-fold concentration at a volume ratio of 1/10,000 was used. Rice seeds were soaked in a 1% aqueous sodium hypochlorite solution for 10 minutes, then soaked in a 70% ethanol solution for surface sterilization, and then washed with distilled water. The sterilized seeds were soaked in a hydroponic solution containing the test compound described above at 1 ppm and incubated in a dark place for 3 days at 28° C. to perform treatment for hastening germination.
(§3) Thereafter, 30 ml of hydroponic solution containing the test compound at 1 ppm was dispensed in a plastic tube (diameter of 20 mm×height of 113 mm) of which the side was covered with cardboard to block light. A float prepared using a styrene board and vinyl mesh was floated, and the rice seeds that had undergone the treatment for hastening germination were placed on the float on the surface of the hydroponic solution. The seeds were cultivated for 3 days at 26° C., an illuminance of 4,000 lux of the top surface of the tube, a humidity of 50%, and a day length of 16 hours.
The nursery plants of rice obtained after cultivation were measured in terms of the length of seminal root by using WinRHIZO system (manufactured by Regent Instruments Inc). For each test plot, an average of the measured values of the seminal root of 4 or 5 individuals was determined.

[2] = system: Rice (variety: Nipponbare); test: Test Example 1: promotion of root growth by hydroponics of rice, 10 ppm; conditions: hydroponic solution containing the test compound at 10 ppm, average of 4 or 5 individuals; for change in vivo at 10 ppm: Oryza sativa, read-out: Relative value of length of seminal root (%-untreated control plot)
Procedure: as §1, §2
(§4) Rice seeds were soaked in a 1% aqueous sodium hypochlorite solution for 10 minutes, then soaked in a 70% ethanol solution for surface sterilization, and then washed with distilled water. The sterilized seeds were soaked in a hydroponic solution containing the test compound described above at 10 ppm and incubated in a dark place for 3 days at 28° C. to perform treatment for hastening germination.
as §3, with “at 10” for “at 1”
(§5) The nursery plants of rice obtained after culturing were measured in terms of the length of seminal root by using WinRHIZO system (manufactured by Regent Instruments Inc). For each test plot, an average of the measured values of the seminal root of 4 or 5 individuals was determined.

[3] = system: Rice (variety: Nipponbare); test: Test Example 3: promotion of root growth by hydroponics of rice, 0.1 ppm; conditions: Oryza sativa, hydroponic solution containing the test compound at 0.1 ppm, average of 4 or 5 individuals, read-out: Relative value of length of seminal root (%-untreated control plot)
Procedure: as §1, §2
A DMSO solution, which contained one of the compounds 2, 6, 7, 16, 20, 33, 34, 36, 37, 38, 40, 41, 43, 44, 45, 46, 47, 48, 50, 51, 52, 53, 54, 55, 56, 61, 64, 67, 68, 71, 72, 73, 74, 75, 76, 79, 80, 81 and 83 of the present invention at a concentration of 1,000 ppm, was added to Hoagland hydroponic solution (Hoagland and Arnon, California Agricultural Experiment Station 1950 Circular 347 pp. 34) of ¼-fold concentration at a volume ratio of 1/10,000. In this manner, hydroponic solutions containing one of the compounds 2, 6, 7, 16, 20, 33, 34, 36, 37, 38, 40, 41, 43, 44, 45, 46, 47, 48, 50, 51, 52, 53, 54, 55, 56, 61, 64, 67, 68, 71, 72, 73, 74, 75, 76, 79, 80, 81 and 83 of the present invention at 0.1 ppm were prepared respectively. As an untreated control plot, a hydroponic solution obtained by adding DMSO to Hoagland hydroponic solution of ¼-fold concentration at a volume ratio of 1/10,000 was used.
as §4, with “at 0.1” for “at 10”
as §3, with “at 0.1” for “at 1”
as §5

[4] = system: Nicotiana benthamiana; test: Test Example 4: growth promotion under low-temperature stress by hydroponics of Nicotiana benthamiana, 10 ppm; conditions: 10 ppm in medium, low-temperature stress 7 days at 1.5±1.0° C., green leaf area 3 days later, equation (1)
Procedure: Test for Evaluating Growth Promotion Under Low-Temperature Stress by Hydroponics of Nicotiana benthamiana
A DMSO solution, which contained one of the compounds 1, 8, 9, 13, 18, 19, 22, 23, 29, 32, 33, 34, 39, 40, 41, 43, 44, 51, 53, 54, 55, 56, 58, 60, 62, 63, 64, 65, 67, 69, 71, 73, 74, 75, 77, 79, 82, 83 and 86 of the present invention at a concentration of 10,000 ppm, was prepared. The DMSO solution of the compound of the present invention was added at a volume ratio of 1/1,000 to the Murashige•Scoog medium of a ½-fold concentration (a medium containing 2.3 g of mixed salts for the Murashige•Scoog medium (manufactured by Wako Pure Chemical Industries, Ltd.), 200 mg of Myo-inositol (manufactured by Sigma-Aldrich Co. LLC.), 2 mg of nicotinic acid (manufactured by Wako Pure Chemical Industries, Ltd.), 2 mg of pyridoxine hydrochloride (manufactured by Wako Pure Chemical Industries, Ltd.), 20 mg of thiamine hydrochloride (manufactured by Wako Pure Chemical Industries, Ltd.), 20 g of sucrose (manufactured by Wako Pure Chemical Industries, Ltd.), and 1 g of MES (manufactured by DOJINDO LABORATORIES) per 1 L of water and having pH adjusted to 5.8), thereby preparing a medium containing the compound of the present invention at a concentration of 10 ppm.
Seeds of Nicotiana benthamiana were seeded in the 5 μL of the medium and cultured overnight at 22° C. Thereafter, 45 μL of the medium containing the compound of the present invention at a concentration of 10 ppm was added thereto, and the seeds are cultivated for 7 days at 22° C., an illuminance of 4,000 lux, and a day length of 16 hours, and the nursery plants raised from the Nicotiana benthamiana were treated with the compound. Moreover, instead of the above medium, a test plot, which was obtained by performing the same treatment by using a medium prepared by adding DMSO to the Murashige•Scoog medium of ½-fold concentration at a volume ratio of 1/1,000, was used as a control plot not treated with the compound.
The nursery plants of the Nicotiana benthamiana treated with the compound were subjected to low-temperature treatment by being cultivated for 7 days at 1.5±1.0° C., an illuminance of 2,000 lux, and a day length of 16 hours.
The nursery plants of the Nicotiana benthamiana having undergone the low-temperature stress treatment were cultivated for 3 days at 22° C., an illuminance of 4,000 lux, and a day length of 16 hours. Thereafter, the area of green leaf was quantified by Scanalyzer HTS (manufactured by LemnaTec GmbH). Moreover, the value of the control plot not treated with the compound that had not yet been subjected to the low-temperature stress treatment was measured in the same manner. A value of a relative leaf area was calculated based on the following equation (1), and if the value of a relative leaf area was 5 or greater, the compound was evaluated to have a mitigating effect. As a result of the evaluation, it was confirmed that when the plant was treated with one of the compounds 1, 8, 9, 13, 18, 19, 22, 23, 29, 32, 33, 34, 39, 40, 41, 43, 44, 51, 53, 54, 55, 56, 58, 60, 62, 63, 64, 65, 67, 69, 71, 73, 74, 75, 77, 79, 82, 83 and 86 of the present invention at 10 ppm, the value of a relative leaf area was 5 or greater, compared to the area of green leaf of the control plot not treated with compound. Accordingly, it was confirmed that the treatment using the compound of the present invention brings about a growth promotion effect.
Relative leaf area=100*(a green area of a plot treated with the compound of the present invention−a green area of a control plot not treated with the compound of the present invention)/(a green area of a control plot not treated with the compound of the present invention that has not yet been subjected to low-temperature stress treatment−a green area of a control plot not treated with the compound of the present invention) Equation (1): […]

Row | Compound | change in vivo at 1 ppm [1] [%] | change in vivo at 10 ppm [2] [%] | other results
1 | Cn1c(C(=O)O)cc2ccccc21 [Compound 14] |  |  | Relative value of length of seminal root (%-untreated control plot) [1]: >5%
2 | COC(=O)c1cc2ccccc2[nH]1 [Compound 13] |  |  | Relative value of length of seminal root (%-untreated control plot) [2]: >5%
3 | Nc1c(C(=O)O)oc2ccc(C(F)(F)F)cc12 [Compound 49] | > 5 | > 5 | 
4 | COC(=O)c1oc2ccccc2c1NS(=O)(=O)c1ccccc1 [Compound 61] | > 5 | > 5 | change in vivo at 0.1 ppm [3]: > 5%
5 | COC(=O)c1nc2ccc(C(F)(F)F)cc2n1C [Compound 25, methyl 1-methyl-6-trifluoromethylbenzimidazole-2-carboxylate] |  | > 5 | 
6 | O=C(O)c1nc2ccccc2[nH]1 [Compound 18] |  | > 5 | relative leaf area at 10 ppm [4]: ≥ 5%
7 | COC(=O)c1oc2ccccc2c1N(C(=O)C(F)(F)F)C(=O)C(F)(F)F [Compound 38] | > 5 | > 5 | change in vivo at 0.1 ppm [3]: > 5%
8 | CCOC(=O)c1cc2ccc(C(F)(F)F)cc2o1 [Compound 46] | > 5 | > 5 | change in vivo at 0.1 ppm [3]: > 5%
9 | O=C(O)c1cc2cccc(C(F)(F)F)c2[nH]1 [Compound 11] |  |  | Relative value of length of seminal root (%-untreated control plot) [1]: >5%
10 | COC(=O)c1cc2ccccc2n1C [Compound 15] | > 5 |  | 
11 | CCOC(=O)c1cc2cccc(C(F)(F)F)c2[nH]1 [Compound 12] |  |  | Relative value of length of seminal root (%-untreated control plot) [1]: >5%
12 | COc1ccc(NC(=O)c2cc3cc(C(F)(F)F)ccc3[nH]2)c(OC)c1 [Compound 10, N-(2,4-dimethoxyphenyl)-5-trifluoromethylindole-2-carboxamide] |  | > 5 | 
13 | O=C(O)c1cc2ccc(C(F)(F)F)cc2o1 [Compound 47] | > 5 | > 5 | change in vivo at 0.1 ppm [3]: > 5%
14 | COC(=O)c1nc2cccnc2n1C [Compound 26, methyl 3-methyl-3H-imidazo[4,5-b]pyridine-2-carboxylate] |  | > 5 | 
15 | COC(=O)c1nc2ccccc2[nH]1 [Compound 19] |  |  | Relative value of length of seminal root (%-untreated control plot) [2]: >5%
16 | O=C(Oc1ccccc1)c1oc2ccc(C(F)(F)F)cc2c1C(F)(F)F [Compound 72] |  |  | change in vivo at 0.1 ppm [3]: > 5%
17 | COC(=O)c1oc2ccccc2c1O [Compound 35] | > 5 | > 5 | 
